The text below walks through data of patent US6645983B1, “Pharmaceutical compositions comprising 4-quinolones for treating cancers” (Laboratoire L. Lafon, priority 1999, dated 2003).

Molecules are shown by their SMILES. A value given as a limit tells only on which side of the number the result lay.

Broadly, the MTD is the largest dose that counted as tolerated. Low readings indicate poorer tolerability, high ones better tolerability.

The test system of the first data set is A-427. The data set is described as follows: MTT test, cytotoxic activity on non-clonogenic cell lines. The format is cell-based. Particulars: Homo sapiens, 10^−5 M, 72 hours of incubation, control condition = 100%, mean value, read-out: mean optical density as percentage of control, A-427. In short, it runs like this: (§1)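 Human cancer lines seeded at 20 000–50 000 cells/ml, allowed 24 h to attach, then exposed to compounds at 10^−5 to 10^−10 M versus solvent control.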
Background: Formazan colour is commonly taken as a measure of viable cells.
As for `COc1ccc(OC)c2c1c(=O)c(-c1ccccc1)cn2C` [CRL8383, 5,8-Dimethoxy-1-methyl-3-phenyl-1,4-dihydro-4-quinolinone], the viability at 10 µM amounted to 92.1%.
The same measure, in the same setting: to `COc1ccc(-c2cn(C)c3cc(OC)cc(N4CCCCC4)c3c2=O)cc1` [CRL8425, 7-Methoxy-3-(4-methoxyphenyl)-1-methyl-5-piperidino-1,4-dihydro-4-quinolinone] belongs 81.9%; to `COc1ccc(-c2c[nH]c3cc(OC)c(OC)cc3c2=O)cc1` [CRL8354, 6,7-Dimethoxy-3-(4-methoxyphenyl)-1,4-dihydro-4-quinolinone], 97.2%.

Another data set concerns A549. Described as above. The format is cell-based. The following applies: Homo sapiens, 10^−5 M, 72 hours of incubation, control condition = 100%, mean value, read-out: mean optical density as percentage of control, A549. In short, it runs like this:
as §1
For `COc1ccc(OC)c2c1c(=O)c(-c1ccccc1)cn2C` [CRL8383, 5,8-Dimethoxy-1-methyl-3-phenyl-1,4-dihydro-4-quinolinone], the viability at 10 µM came to 84.1%.
Regarding `COc1ccc(-c2cn(C)c3cc(OC)cc(N4CCCCC4)c3c2=O)cc1` [CRL8425, 7-Methoxy-3-(4-methoxyphenyl)-1-methyl-5-piperidino-1,4-dihydro-4-quinolinone], the viability at 10 µM stood at 80.2%.
Consider `COc1ccc(-c2c[nH]c3cc(OC)c(OC)cc3c2=O)cc1` [CRL8354, 6,7-Dimethoxy-3-(4-methoxyphenyl)-1,4-dihydro-4-quinolinone], for which the viability at 10 µM was 98.5%.

The subject of the next data set is HCT-15. The data set is described as above. The format is cell-based. Particulars: Homo sapiens, 10^−5 M, 72 hours of incubation, control condition = 100%, mean value, read-out: mean optical density as percentage of control, HCT-16. The method in brief: as §1
As for `COc1ccc(OC)c2c1c(=O)c(-c1ccccc1)cn2C` [CRL8383, 5,8-Dimethoxy-1-methyl-3-phenyl-1,4-dihydro-4-quinolinone], the viability at 10 µM amounted to 100%.
With `COc1ccc(-c2cn(C)c3cc(OC)cc(N4CCCCC4)c3c2=O)cc1` [CRL8425, 7-Methoxy-3-(4-methoxyphenyl)-1-methyl-5-piperidino-1,4-dihydro-4-quinolinone], the viability at 10 µM stood at 78.9%.
In the case of `COc1ccc(-c2c[nH]c3cc(OC)c(OC)cc3c2=O)cc1` [CRL8354, 6,7-Dimethoxy-3-(4-methoxyphenyl)-1,4-dihydro-4-quinolinone], the viability at 10 µM is 95.9%.

The next data set concerns LoVo. The data set is described as above. The following applies: Homo sapiens, 10^−5 M, 72 hours of incubation, control condition = 100%, mean value, read-out: mean optical density as percentage of control, LoVo. The format is cell-based. In short, it runs like this: as §1
For `COc1ccc(OC)c2c1c(=O)c(-c1ccccc1)cn2C` [CRL8383, 5,8-Dimethoxy-1-methyl-3-phenyl-1,4-dihydro-4-quinolinone], the viability at 10 µM was found to be 89.1%.
Still for that read-out and setting: to `COc1ccc(-c2cn(C)c3cc(OC)cc(N4CCCCC4)c3c2=O)cc1` [CRL8425, 7-Methoxy-3-(4-methoxyphenyl)-1-methyl-5-piperidino-1,4-dihydro-4-quinolinone] belongs 71%; to `COc1ccc(-c2c[nH]c3cc(OC)c(OC)cc3c2=O)cc1` [CRL8354, 6,7-Dimethoxy-3-(4-methoxyphenyl)-1,4-dihydro-4-quinolinone], 98.4%.

In a further data set the test system is MCF7. The description is as above. Type of data set: cell-based. Particulars: Homo sapiens, 10^−5 M, 72 hours of incubation, control condition = 100%, mean value, read-out: mean optical density as percentage of control, MCF7. The method in brief:
as §1
On to `COc1ccc(OC)c2c1c(=O)c(-c1ccccc1)cn2C` [CRL8383, 5,8-Dimethoxy-1-methyl-3-phenyl-1,4-dihydro-4-quinolinone], for which the viability at 10 µM came to 85%.
For `COc1ccc(-c2cn(C)c3cc(OC)cc(N4CCCCC4)c3c2=O)cc1` [CRL8425, 7-Methoxy-3-(4-methoxyphenyl)-1-methyl-5-piperidino-1,4-dihydro-4-quinolinone], the viability at 10 µM amounted to 102%.
With `COc1ccc(-c2c[nH]c3cc(OC)c(OC)cc3c2=O)cc1` [CRL8354, 6,7-Dimethoxy-3-(4-methoxyphenyl)-1,4-dihydro-4-quinolinone], the viability at 10 µM is 102%.

The next data set has as its system PC-3. Described as above. The format is cell-based. Particulars: Homo sapiens, 10^−5 M, 72 hours of incubation, control condition = 100%, mean value, read-out: mean optical density as percentage of control, PC-3. The method in brief: as §1
In the case of `COc1ccc(OC)c2c1c(=O)c(-c1ccccc1)cn2C` [CRL8383, 5,8-Dimethoxy-1-methyl-3-phenyl-1,4-dihydro-4-quinolinone], the viability at 10 µM was found to be 88.3%.
The same measure, in the same setting: to `COc1ccc(-c2cn(C)c3cc(OC)cc(N4CCCCC4)c3c2=O)cc1` [CRL8425, 7-Methoxy-3-(4-methoxyphenyl)-1-methyl-5-piperidino-1,4-dihydro-4-quinolinone] belongs 88.2%; to `COc1ccc(-c2c[nH]c3cc(OC)c(OC)cc3c2=O)cc1` [CRL8354, 6,7-Dimethoxy-3-(4-methoxyphenyl)-1,4-dihydro-4-quinolinone], 93.7%.

Another data set deals with T-47D. Described as above. Type of data set: cell-based. The following applies: Homo sapiens, T47D; 10^−5 M, 72 hours of incubation, control condition = 100%, mean value; read-out: mean optical density as percentage of control, T-47D. In short, it runs like this: as §1
Regarding `COc1ccc(OC)c2c1c(=O)c(-c1ccccc1)cn2C` [CRL8383, 5,8-Dimethoxy-1-methyl-3-phenyl-1,4-dihydro-4-quinolinone], the viability at 10 µM amounted to 75.3%.
Consider `COc1ccc(-c2cn(C)c3cc(OC)cc(N4CCCCC4)c3c2=O)cc1` [CRL8425, 7-Methoxy-3-(4-methoxyphenyl)-1-methyl-5-piperidino-1,4-dihydro-4-quinolinone], for which the viability at 10 µM worked out at 97.3%.
As for `COc1ccc(-c2c[nH]c3cc(OC)c(OC)cc3c2=O)cc1` [CRL8354, 6,7-Dimethoxy-3-(4-methoxyphenyl)-1,4-dihydro-4-quinolinone], the viability at 10 µM is 104%.

In another data set the test system is U-373MG. The data set is described as above. Type of data set: cell-based. Particulars: Homo sapiens, U373 MG; 10^−5 M, 72 hours of incubation, control condition = 100%, mean value; read-out: mean optical density as percentage of control, U-373MG. The method in brief: as §1
For `COc1ccc(OC)c2c1c(=O)c(-c1ccccc1)cn2C` [CRL8383, 5,8-Dimethoxy-1-methyl-3-phenyl-1,4-dihydro-4-quinolinone], the viability at 10 µM worked out at 83.5%.
Same read-out and setting: the figure for `COc1ccc(-c2cn(C)c3cc(OC)cc(N4CCCCC4)c3c2=O)cc1` [CRL8425, 7-Methoxy-3-(4-methoxyphenyl)-1-methyl-5-piperidino-1,4-dihydro-4-quinolinone] is 82.6%; for `COc1ccc(-c2c[nH]c3cc(OC)c(OC)cc3c2=O)cc1` [CRL8354, 6,7-Dimethoxy-3-(4-methoxyphenyl)-1,4-dihydro-4-quinolinone] it is 97.7%.

Another data set deals with U-87MG. The data set is described as above. Particulars: Homo sapiens, U-87 MG; 10^−5 M, 72 hours of incubation, control condition = 100%, mean value; read-out: mean optical density as percentage of control, U-87MG. Type of data set: cell-based. The method in brief: as §1
As for `COc1ccc(OC)c2c1c(=O)c(-c1ccccc1)cn2C` [CRL8383, 5,8-Dimethoxy-1-methyl-3-phenyl-1,4-dihydro-4-quinolinone], the viability at 10 µM is 69.5%.
Same read-out and setting: the figure for `COc1ccc(-c2cn(C)c3cc(OC)cc(N4CCCCC4)c3c2=O)cc1` [CRL8425, 7-Methoxy-3-(4-methoxyphenyl)-1-methyl-5-piperidino-1,4-dihydro-4-quinolinone] is 92.6%; for `COc1ccc(-c2c[nH]c3cc(OC)c(OC)cc3c2=O)cc1` [CRL8354, 6,7-Dimethoxy-3-(4-methoxyphenyl)-1,4-dihydro-4-quinolinone] it is 102%.

The next data set deals with SW1088. Described as above. The format is cell-based. Particulars: Homo sapiens, 10^−5 M, 72 hours of incubation, control condition = 100%, mean value, read-out: mean optical density as percentage of control, SW1088. The method in brief:
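Human astrocytoma SW1088 cells seeded, grown 24 h at 37° C, 5% CO2, then exposed to compounds at 10^−5 to 10^−10 M versus solvent control. Viability by MTT reduction: 3 h MTT incubation, formazan dissolved in DMSO and read by spectrophotometry.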
Consider `COc1ccc(OC)c2c1c(=O)c(-c1ccccc1)cn2C` [CRL8383, 5,8-Dimethoxy-1-methyl-3-phenyl-1,4-dihydro-4-quinolinone], for which the viability at 10 µM was determined as 75.9%.
On the same count and under the same terms, the figure for `COc1ccc(-c2cn(C)c3cc(OC)cc(N4CCCCC4)c3c2=O)cc1` [CRL8425, 7-Methoxy-3-(4-methoxyphenyl)-1-methyl-5-piperidino-1,4-dihydro-4-quinolinone] is 85.4%; for `COc1ccc(-c2c[nH]c3cc(OC)c(OC)cc3c2=O)cc1` [CRL8354, 6,7-Dimethoxy-3-(4-methoxyphenyl)-1,4-dihydro-4-quinolinone] it is 93.2%.

The next data set concerns J82. Described as above. The following applies: Homo sapiens, 10^−5 M, 72 hours of incubation, control condition = 100%, mean value, read-out: mean optical density as percentage of control, J82. The format is cell-based. In short, it runs like this: (§2)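 Human bladder cancer lines were seeded at 20 000–50 000 cells/ml and, after 24 h, exposed to compounds at 10^−5 to 10^−10 M against a solvent control. Formazan was dissolved in DMSO and viability was read by spectrophotometric optical density.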
In the case of `COc1ccc(OC)c2c1c(=O)c(-c1ccccc1)cn2C` [CRL8383, 5,8-Dimethoxy-1-methyl-3-phenyl-1,4-dihydro-4-quinolinone], the viability at 10 µM is 94.6%.
The same measure, in the same setting: the figure for `COc1ccc(-c2cn(C)c3cc(OC)cc(N4CCCCC4)c3c2=O)cc1` [CRL8425, 7-Methoxy-3-(4-methoxyphenyl)-1-methyl-5-piperidino-1,4-dihydro-4-quinolinone] is 71.9%; for `COc1ccc(-c2c[nH]c3cc(OC)c(OC)cc3c2=O)cc1` [CRL8354, 6,7-Dimethoxy-3-(4-methoxyphenyl)-1,4-dihydro-4-quinolinone] it is 98.2%.

Another data set concerns T24. Described as above. Type of data set: cell-based. The following applies: Homo sapiens, T-24; 10^−5 M, 72 hours of incubation, control condition = 100%, mean value; read-out: mean optical density as percentage of control, T24. The method in brief: as §2
Turning to `COc1ccc(OC)c2c1c(=O)c(-c1ccccc1)cn2C` [CRL8383, 5,8-Dimethoxy-1-methyl-3-phenyl-1,4-dihydro-4-quinolinone], the viability at 10 µM is 180%.
With `COc1ccc(-c2cn(C)c3cc(OC)cc(N4CCCCC4)c3c2=O)cc1` [CRL8425, 7-Methoxy-3-(4-methoxyphenyl)-1-methyl-5-piperidino-1,4-dihydro-4-quinolinone], the viability at 10 µM came out at 98.2%.
As for `COc1ccc(-c2c[nH]c3cc(OC)c(OC)cc3c2=O)cc1` [CRL8354, 6,7-Dimethoxy-3-(4-methoxyphenyl)-1,4-dihydro-4-quinolinone], the viability at 10 µM is 91.4%.

Tested on in the next data set: not listed separately
The data set can be described thus: Determination of the maximum tolerated dose (MTD). Particulars: B6D2F1/Jico, mouse, in vivo, ip; single intraperitoneal administration, doses 2.5 to 160 mg/kg, survival over 14 days. In short, it runs like this:
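Mice were 4- to 6-week-old B6D2F1/Jico. They received a single intraperitoneal dose of 2.5 to 160 mg/kg, and survival and body weight were followed for 14 days. MTD is given in mg/kg and is capped at 160 mg/kg by default.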
Regarding `COc1ccc(OC)c2c1c(=O)c(-c1ccccc1)cn2C` [CRL8383, 5,8-Dimethoxy-1-methyl-3-phenyl-1,4-dihydro-4-quinolinone], the MTD at 14 day is greater than 160 mg/kg.
In turn, `COc1ccc(-c2cn(C)c3cc(OC)cc(N4CCCCC4)c3c2=O)cc1` [CRL8425, 7-Methoxy-3-(4-methoxyphenyl)-1-methyl-5-piperidino-1,4-dihydro-4-quinolinone] gave an MTD at 14 day greater than 160 mg/kg.
On to `COc1ccc(-c2c[nH]c3cc(OC)c(OC)cc3c2=O)cc1` [CRL8354, 6,7-Dimethoxy-3-(4-methoxyphenyl)-1,4-dihydro-4-quinolinone], for which the MTD at 14 day was greater than 160 mg/kg.
